Measured values: PMC10746189, “Campylobacter jejuni uses energy taxis and a dehydrogenase enzyme for L-fucose chemotaxis” (mBio, 2023)

Target: T1, FucX (Campylobacter jejuni, UniProt Q0PB28)
T1 construct: gene Cj0485; His-tagged FucX from pET30a(+)-fucX, expressed in E. coli BL21, Ni-NTA purified, desalted
Experiment: dehydrogenase assay, NADPH absorbance at […] nm
Type: biochemical
Conditions: 5 nM protein; 1 mM L-fucose; 100 µM NADP+; 1 mM MgCl2; 50 mM Tris-HCl pH 7.5; room temperature

T1 sequence (Q0PB28 entry or part of it): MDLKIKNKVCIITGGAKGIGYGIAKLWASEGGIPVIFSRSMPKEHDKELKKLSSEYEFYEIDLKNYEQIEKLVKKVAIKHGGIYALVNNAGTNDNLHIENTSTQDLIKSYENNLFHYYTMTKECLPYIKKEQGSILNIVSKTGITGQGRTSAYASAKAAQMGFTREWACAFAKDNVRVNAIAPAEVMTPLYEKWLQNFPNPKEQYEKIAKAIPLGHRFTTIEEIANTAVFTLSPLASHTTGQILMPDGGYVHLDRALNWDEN

## C[C@@H]1OC(O)[C@@H](O)[C@H](O)[C@@H]1O (stereo partly drawn) [L-fucose]
  dehydrogenase assay, NADPH absorbance at 340 nm: L-Fucose dehydrogenase activity of indicated FucX pure proteins: (+), with L-fucose; (−), no L-fucose.
